Results published in patent US20260053861A1, “CELL COMPOSITIONS AND METHODS OF USING THE SAME” (THE REGENTS OF THE UNIVERSITY OF CALIFORNIA, priority 2022, published 2026).
Where a name gives a salt, the structure may show the parent alone. Read-outs that look alike come from different tables or passages of the source.

Test system: hPSC-SCs
[1] = HTS viability of hPSC-SCs in the presence of 30 mM glucose, Prestwick library, Table S4

Compound | z.score.t [1] | z.score.t
[H]/N=C(/N)N[C@H]1[C@H](O)[C@@H](O)[C@H](O[C@@H]2O[C@@H](C)[C@](O)(C=O)[C@H]2O[C@@H]2O[C@@H](CO)[C@H](O)[C@@H](O)[C@@H]2NC)[C@@H](N/C(N)=N\[H])[C@@H]1O [Streptomycin sulfate] | −1.359 | 
C[C@H]1C[C@@H]2[C@H]([C@@H](O)C[C@@]3(C)[C@H]2CC[C@]3(O)C(=O)CO)[C@@]2(C)C=CC(=O)C=C12 [Methylprednisolone, 6-alpha] | 0.7665 | 
O=C(O)CNC(=O)C(CS)Cc1ccccc1 (stereo not drawn) [Thiorphan] | 0.563 | 
NS(=O)(=O)c1cc2c(cc1Cl)NCNS2(=O)=O [Hydrochlorothiazide] | 0.1742 | 
COc1nc(C)nc(Cl)c1N=C1NCCN1 [Moxonidine] | −0.133 | 
Nc1ccc(S(=O)(=O)c2ccc(N)cc2)cc1 [Dapsone] | 1.024 | 
CCN1CCC[C@H]1CNC(=O)c1c(OC)ccc(Br)c1OC [Remoxipride Hydrochloride] | 0.05395 | 
Nc1ccc(S(=O)(=O)Nc2cnc3ccccc3n2)cc1 [Sulfaquinoxaline sodium salt] | 1.117 | 
CN1CCN(C(c2ccccc2)c2ccc(Cl)cc2)CC1 (stereo not drawn) [Chlorcyclizine hydrochloride] | −1.754 | 
COc1c2ccoc2nc2c(OC)c(OCC(O)C(C)(C)O)ccc12 (stereo not drawn) [Evoxine] | 0.0116 | 
Nc1c2c(nc3ccccc13)CCCC2 [Tacrine hydrochloride hydrate] | −0.7049 | 
Cc1cc(CC(=O)O)n(C)c1C(=O)c1ccc(Cl)cc1 [Zomepirac sodium salt] | −0.9042 | 
Cc1c(N)c(=O)n(-c2ccccc2)n1C [Ampyrone] | 0.4205 | 
CN(Cc1cnc2nc(N)nc(N)c2n1)c1ccc(C(=O)N[C@@H](CCC(=O)O)C(=O)O)cc1 [Methotrexate] | 0.8875 | 
O=C(CCCN1CCC(O)(c2ccc(Br)cc2)CC1)c1ccc(F)cc1 [Bromperidol] | 1.239 | 
Cc1nc2ccccn2c(=O)c1CCN1CCC(C(=O)c2ccc(F)cc2)CC1 [Pirenperone] | −0.07901 | 
CC(C)(C)NCC(O)c1cc(Cl)c(N)c(Cl)c1 (stereo not drawn) [Clenbuterol hydrochloride] |  | 0.4048
CCO.C[C@H]1c2cccc(O)c2C(O)=C2C(=O)[C@]3(O)C(O)=C(C(N)=O)C(=O)[C@@H](N(C)C)[C@@H]3[C@@H](O)[C@@H]21.C[C@H]1c2cccc(O)c2C(O)=C2C(=O)[C@]3(O)C(O)=C(C(N)=O)C(=O)[C@@H](N(C)C)[C@@H]3[C@@H](O)[C@@H]21.Cl.Cl.O [Doxycycline hyclate] | 1.148 | 
C[C@@H]1O[C@@H](O[C@H]2C[C@@H](O)[C@]3(CO)[C@H]4[C@H](O)C[C@]5(C)[C@@H](C6=CC(=O)OC6)CC[C@]5(O)[C@@H]4CC[C@]3(O)C2)[C@H](O)[C@H](O)[C@H]1O.O.O.O.O.O.O.O.O [Strophantine octahydrate] |  | −2.04
CCC(=O)O[C@H]1CC[C@H]2[C@@H]3CCC4=CC(=O)CC[C@]4(C)[C@H]3CC[C@]12C [Testosterone propionate] |  | −1.014
CO/N=C(\C(=O)N[C@@H]1C(=O)N2C(C(=O)O)=C(COC(C)=O)CS[C@H]12)c1csc(N)n1 [Cefotaxime sodium salt] | 1.931 | 
CC(=O)OCC(=O)[C@@]1(O)CC[C@H]2[C@@H]3CCC4=CC(=O)C=C[C@]4(C)[C@@]3(F)[C@@H](O)C[C@@]21C [Isoflupredone acetate] | −0.3156 | 
C[C@@H]1C[C@H]2[C@@H]3CCC4=CC(=O)C=C[C@]4(C)[C@@]3(Cl)[C@@H](O)C[C@]2(C)[C@@]1(OC(=O)c1ccco1)C(=O)CCl [Mometasone furoate] | 0.1979 | 
CC(=O)c1ccc2c(c1)N(CCCN1CCC(CCO)CC1)c1ccccc1S2 [Piperacetazine] | −1.148 | 
COc1cnc(NS(=O)(=O)c2ccc(N)cc2)nc1 [Sulfameter] | 1.493 | 
COC(=O)Nc1nc2ccc(C(=O)c3ccccc3)cc2[nH]1 [Mebendazole] | −1.584 | 

Compound | z.score.t [1] | z.score.t
CCN(CC)CCCC(C)Nc1c2ccc(Cl)cc2nc2ccc(OC)cc12 (stereo not drawn) [Quinacrine dihydrochloride dihydrate] | −1.898 | 
CN1CCN(C2=Nc3cc(Cl)ccc3Nc3ccccc32)CC1 [Clozapine] | 1.049 | 
NC(=NCc1ccccc1)NC(=O)c1nc(Cl)c(N)nc1N [Benzamil hydrochloride] | −1.515 | 
CCN(CC)C(=S)SSC(=S)N(CC)CC [Disulfiram] | −1.291 | 
C[N+]1(C)C[C@H](O)C[C@H]1C(=O)[O-] [Betonicine] | 1.194 | 
Cc1ccc(S(=O)(=O)NC(=O)NN2CCCCCC2)cc1 [Tolazamide] | 0.1767 | 
O=c1[nH]c(=O)n([C@H]2C[C@H](O)[C@@H](CO)O2)cc1C(F)(F)F [Trifluridine] | −0.7873 | 
CN1CCC(=C2c3ccccc3CC(=O)c3sccc32)CC1 [Ketotifen fumarate] | −0.7415 | 
O.Oc1cc(O)c2c(c1)OC(c1ccc(O)c(O)c1)C(O)C2 (racemic) [Catechin-(+, −) hydrate] | 0.2361 | 
Beta-Escin | −0.5583 | 
CNCC(O)c1ccc(O)c(OC)c1.Cl (stereo not drawn) [Metanephrine hydrochloride DL] | 1.259 | 
CO[C@H]1/C=C/O[C@@]2(C)Oc3c(C)c(O)c4c(c3C2=O)C2=NC3(CCN(CC(C)C)CC3)NC2=C(NC(=O)/C(C)=C\C=C\[C@H](C)[C@H](O)[C@@H](C)[C@@H](O)[C@@H](C)[C@H](OC(C)=O)[C@@H]1C)C4=O [Rifabutin] | −0.1474 | 
CC[N+](CC)(CC)CCOc1cccc(OCC[N+](CC)(CC)CC)c1OCC[N+](CC)(CC)CC [Gallamine triethiodide] | −0.1538 | 
CN(N=O)C(=O)N[C@H]1C(O)O[C@H](CO)[C@@H](O)[C@@H]1O (mixture of isomers) [Streptozotocin] |  | 0.03421
Trimeprazine tartrate | −0.411 | 
NC[C@H]1O[C@H](O[C@H]2[C@H](O[C@@H]3O[C@H](CO)[C@@H](O)[C@H]3O)[C@@H](O)[C@H](N)C[C@@H]2N)[C@H](N)[C@@H](O)[C@@H]1O [Ribostamycin sulfate salt] | −0.7757 | 
CC(COc1ccccc1)NC(C)C(O)c1ccc(O)cc1 (stereo not drawn) [Isoxsuprine hydrochloride] | −0.1687 | 
C/C=C1/C[N@+]2(C)CC[C@]34C(=C(C=O)[C@H]1C[C@@H]32)Nc1ccccc14.[Cl-] [Fluorocurarine chloride] |  | 1.364
C[C@]12CC[C@H](O)C[C@@H]1CC[C@@H]1[C@@H]2CC[C@]2(C)C(=O)CC[C@@H]12 [Epiandrosterone] |  | 1.457
CCCCC[C@H](O)/C=C/[C@H]1[C@H](O)CC(=O)[C@@H]1CCCCCCC(=O)O [Alprostadil] | 0.3375 | 
Clc1ccc(COC(Cn2ccnc2)c2ccc(Cl)cc2Cl)cc1 (stereo not drawn) [Econazole nitrate] | −1.834 | 
C#C[C@]1(O)CC[C@H]2[C@@H]3CCc4cc(OC)ccc4[C@H]3CC[C@@]21C [Ethynylestradiol 3-methyl ether] | 0.9696 | 
Nc1ccc(S(=O)(=O)Nc2ccc(Cl)nn2)cc1 [Sulfachloropyridazine] | −0.1014 | 
c1ccc(CNc2ncnc3[nH]cnc23)cc1 [Aminopurine, 6-benzyl] | 0.3206 | 
CCOC(=O)Nc1ccc2c(c1)N(C(=O)CCN1CCOCC1)c1ccccc1S2 [Moricizine hydrochloride] | 0.0827 | 
